Here are results for one molecule from publication PMC12337082 (Journal of Biochemical and Molecular Toxicology, 2025).

Assay type in all cases: cell-based, human
The test system of one assay is COX‐2. The experiment in a line: Western blot COX‐2 protein expression, MDA‐MB‐231. The settings on record: 24 h. The procedure:
Total protein levels were measured using the Take3 Multi‐Volume Plate (Synergy H1, BioTek Instruments Inc., Vermont, USA). In accordance with the classical protocol, transferred proteins were exposed to the following primary antibodies: Beta‐actin (NB600‐501, Novus Biologicals), Bax (SPM336, NBP2‐32809), Bcl‐2 (100/D5, NBP2‐15200), cleaved PARP (194C1439, NBP2‐27335), and COX‐2 (D‐12:sc‐166475, Santa Cruz). The bands were visualized with chemiluminescent HRP substrates (Western Bright ECL‐Advansta, K‐12045‐050). Using a chemiluminescence imaging system (Celvin S, BioStep), the relative quantification was done based on the level of β‐actin proteins.

Assay [1] deals with MDA‐MB‐231. Briefly: Mitochondrial membrane potential (JC‐1) apoptosis assay, MDA‐MB‐231. Conditions: MDA‐MB‐231, 50 μM, 24 h, MMP assay. How it is done:
Apoptosis was also investigated by evaluating mitochondrial membrane potential changes (MMP assay). MCF‐7, MDA‐MB‐231, and L‐929 cells were stained with JC‐1 dye according to the manufacturer's protocols (JC‐1 MMP Assay Kit, KA1324, Abnova). The apoptotic to healthy cell ratio was calculated using absorbances collected from two different fluorescence channels (535/595 for healthy cells, 485/535 for apoptotic cells) (Synergy H1, Biotech Instruments Inc., Vermont, USA).

In another assay the test system is PGE2 release. Briefly: PGE2 ELISA, MDA‐MB‐231. The settings on record: Homo sapiens; MDA‐MB‐231, 50 µM, 24 h. The procedure:
PGE2 ELISA kit (ENZO, ADI‐900‐001) was used to determine prostaglandin synthesis levels. MCF‐7 and MDA‐MB‐231 breast cancer cells were cultured at a density of 1 × 10^6 cells/well in a 6‐well culture dish. […] Following 24 h of incubation, the medium was replaced with a fresh one, 10 µM arachidonic acid was added, and it was further incubated for 1 h. The PGE2 levels were determined according to the kit protocol.
(In general: An ELISA detects its analyte on a solid surface through an enzyme-linked reagent.)

In assay [2] the test system is MDA‐MB‐231. Briefly: Annexin V/PI staining, Tali image‐based cytometry, MDA‐MB‐231. The settings on record: MDA‐MB‐231, 24 h. The source says: To assess apoptosis and cell death, cells were stained with Annexin V‐PI dyes (Tali Apoptosis Kit‐Annexin V Alexa Fluor 488 and PI‐, Molecular Probes A10788, Invitrogen) and quantified using Tali Image‐Based Cytometer (Invitrogen) and fluorescence microscopy (Olympus CKX41 Inverted Phase Contrast Fluorescence Microscope furbished with reflected fluorescence illuminator CKX‐RFA).
To assess whether our compounds produce their cytotoxic effects through induction of apoptosis, apoptosis was investigated using Annexin V/PI labeling and MMP methods (Figures 4A−C). In addition, by utilizing TALI image‐based cytometry and fluorescent microscopy, the number of cells was analyzed for different concentrations of agents (Table 4).

Each structure is given as a SMILES string.

`CCc1cccc2c3c([nH]c12)C(CC)(CC(=O)N/N=C/c1ccc(OC)cc1)OCC3` (racemic) [SGK 206, 2‐(1,8‐Diethyl‐1,3,4,9‐tetrahydropyrano[3,4‐b]indole‐1‐yl) acetic acid[(4‐methoxyphenyl)methylene]acetohydrazide]: the “Decrease in COX‐2 protein expression compared to the control group” value in the assay with COX‐2 (MDA‐MB‐231, 50 µM) came to 16%; in the assay with COX‐2 (MDA‐MB‐231, 75 µM), 37%. In the assay on MDA‐MB‐231 [1], the “Increase in apoptosis compared to the control group” value was 57%. Further, testing at 50 µM with PGE2 release gave an inhibition of 91%. Also, the Apoptotic cells is recorded as 1% in the assay on MDA‐MB‐231 [2] (25 µM), 4% in the assay on MDA‐MB‐231 [2] (50 µM) and 8% in the assay on MDA‐MB‐231 [2] (75 µM). In addition, the results for the Dead cells in the assay on MDA‐MB‐231 [2] (25 µM), in the assay on MDA‐MB‐231 [2] (50 µM) and in the assay on MDA‐MB‐231 [2] (75 µM) were 2%, 3% and 25%, respectively. The Live cells in the assay on MDA‐MB‐231 [2] (25 µM) came to 97%; with MDA‐MB‐231 [2] (50 µM) it was 93%; in the assay with MDA‐MB‐231 [2] (75 µM) it was 67%.
